Measured values: the kinase profiling compilation of Christmann-Franck et al. (2016)

How the values were obtained:
Test in all cases: KINOMEscan competition binding
Conditions in all cases: compound 10.0 µM
[1] = test system: KIT (human), P10721 [L576P]
[2] = target: CDK11B (human) (UniProt P21127)
[3] = target: MYO3A (human) (UniProt Q8NEV4)
[4] = target: LRRK2 (human) (UniProt Q5S007)
[5] = target: JAK1 JH1 catalytic (human) (UniProt P23458)
[6] = target: WEE1 (human) (UniProt P30291)
[7] = target: HIPK1 (human) (UniProt Q86Z02)
[8] = target: SIK3 (human) (UniProt Q9Y2K2)
[9] = target: STK33 (human) (UniProt Q9BYT3)
[10] = target: PRKCI (human) (UniProt P41743)
[11] = target: DMPK (human) (UniProt Q09013)
[12] = target: IRAK1 (human) (UniProt P51617)
[13] = target: EPHB1 (human) (UniProt P54762)
[14] = target: NEK5 (human) (UniProt Q6P3R8)
[15] = target: MAP3K6 (human) (UniProt O95382)
[16] = target: CDK16 (human) (UniProt Q00536)
[17] = target: CaMK1 (human) (UniProt Q14012)
[18] = target: PIM3 (human) (UniProt Q86V86)
[19] = test system: FGFR3 (human), P22607 [G697C]
[20] = target: CDK14 (human) (UniProt O94921)
[21] = target: TNK1 (human) (UniProt Q13470)
Chain of TNK1 (human) (Q13470 whole entry, looked up): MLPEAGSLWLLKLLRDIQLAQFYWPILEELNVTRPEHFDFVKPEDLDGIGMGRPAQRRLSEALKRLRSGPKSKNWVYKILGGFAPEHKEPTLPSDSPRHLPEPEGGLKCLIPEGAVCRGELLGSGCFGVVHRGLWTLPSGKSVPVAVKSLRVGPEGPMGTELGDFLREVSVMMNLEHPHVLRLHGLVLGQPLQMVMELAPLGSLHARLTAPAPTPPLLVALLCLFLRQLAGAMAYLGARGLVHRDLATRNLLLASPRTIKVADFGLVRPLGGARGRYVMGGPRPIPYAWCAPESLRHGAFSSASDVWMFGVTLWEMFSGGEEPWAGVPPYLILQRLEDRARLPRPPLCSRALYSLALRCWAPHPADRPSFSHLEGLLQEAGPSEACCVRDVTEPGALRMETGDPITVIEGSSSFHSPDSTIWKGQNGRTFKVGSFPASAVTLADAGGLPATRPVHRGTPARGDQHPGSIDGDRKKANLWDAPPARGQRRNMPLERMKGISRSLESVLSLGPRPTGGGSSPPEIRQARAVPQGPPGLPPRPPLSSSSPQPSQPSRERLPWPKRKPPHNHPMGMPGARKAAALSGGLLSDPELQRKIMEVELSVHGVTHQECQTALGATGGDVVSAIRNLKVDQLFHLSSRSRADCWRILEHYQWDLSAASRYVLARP

[22] = target: DSTYK (human) (UniProt Q6XUX3)
[23] = target: MELK (human) (UniProt Q14680)
[24] = target: PRKACB (human) (UniProt P22694)
[25] = target: CLK1 (human) (UniProt P49759)
[26] = target: PTK6 (human) (UniProt Q13882)
Chain of PTK6 (human) (Q13882 whole entry, looked up): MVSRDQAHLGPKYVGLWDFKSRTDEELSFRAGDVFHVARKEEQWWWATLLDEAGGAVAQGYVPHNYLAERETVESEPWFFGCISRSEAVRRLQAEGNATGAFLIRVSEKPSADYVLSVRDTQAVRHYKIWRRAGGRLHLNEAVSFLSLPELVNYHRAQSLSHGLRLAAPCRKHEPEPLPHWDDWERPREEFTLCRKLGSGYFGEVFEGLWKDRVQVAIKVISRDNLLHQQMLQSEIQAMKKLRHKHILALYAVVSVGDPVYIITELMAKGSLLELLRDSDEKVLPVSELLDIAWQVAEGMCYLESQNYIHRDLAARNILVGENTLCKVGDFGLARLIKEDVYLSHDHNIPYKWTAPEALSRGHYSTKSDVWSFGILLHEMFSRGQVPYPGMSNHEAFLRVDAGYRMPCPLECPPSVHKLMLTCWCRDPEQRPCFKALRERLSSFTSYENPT

[27] = target: MTOR (human) (UniProt P42345)
[28] = target: ROCK1 (human) (UniProt Q13464)
Chain of ROCK1 (human) (Q13464 whole entry, looked up): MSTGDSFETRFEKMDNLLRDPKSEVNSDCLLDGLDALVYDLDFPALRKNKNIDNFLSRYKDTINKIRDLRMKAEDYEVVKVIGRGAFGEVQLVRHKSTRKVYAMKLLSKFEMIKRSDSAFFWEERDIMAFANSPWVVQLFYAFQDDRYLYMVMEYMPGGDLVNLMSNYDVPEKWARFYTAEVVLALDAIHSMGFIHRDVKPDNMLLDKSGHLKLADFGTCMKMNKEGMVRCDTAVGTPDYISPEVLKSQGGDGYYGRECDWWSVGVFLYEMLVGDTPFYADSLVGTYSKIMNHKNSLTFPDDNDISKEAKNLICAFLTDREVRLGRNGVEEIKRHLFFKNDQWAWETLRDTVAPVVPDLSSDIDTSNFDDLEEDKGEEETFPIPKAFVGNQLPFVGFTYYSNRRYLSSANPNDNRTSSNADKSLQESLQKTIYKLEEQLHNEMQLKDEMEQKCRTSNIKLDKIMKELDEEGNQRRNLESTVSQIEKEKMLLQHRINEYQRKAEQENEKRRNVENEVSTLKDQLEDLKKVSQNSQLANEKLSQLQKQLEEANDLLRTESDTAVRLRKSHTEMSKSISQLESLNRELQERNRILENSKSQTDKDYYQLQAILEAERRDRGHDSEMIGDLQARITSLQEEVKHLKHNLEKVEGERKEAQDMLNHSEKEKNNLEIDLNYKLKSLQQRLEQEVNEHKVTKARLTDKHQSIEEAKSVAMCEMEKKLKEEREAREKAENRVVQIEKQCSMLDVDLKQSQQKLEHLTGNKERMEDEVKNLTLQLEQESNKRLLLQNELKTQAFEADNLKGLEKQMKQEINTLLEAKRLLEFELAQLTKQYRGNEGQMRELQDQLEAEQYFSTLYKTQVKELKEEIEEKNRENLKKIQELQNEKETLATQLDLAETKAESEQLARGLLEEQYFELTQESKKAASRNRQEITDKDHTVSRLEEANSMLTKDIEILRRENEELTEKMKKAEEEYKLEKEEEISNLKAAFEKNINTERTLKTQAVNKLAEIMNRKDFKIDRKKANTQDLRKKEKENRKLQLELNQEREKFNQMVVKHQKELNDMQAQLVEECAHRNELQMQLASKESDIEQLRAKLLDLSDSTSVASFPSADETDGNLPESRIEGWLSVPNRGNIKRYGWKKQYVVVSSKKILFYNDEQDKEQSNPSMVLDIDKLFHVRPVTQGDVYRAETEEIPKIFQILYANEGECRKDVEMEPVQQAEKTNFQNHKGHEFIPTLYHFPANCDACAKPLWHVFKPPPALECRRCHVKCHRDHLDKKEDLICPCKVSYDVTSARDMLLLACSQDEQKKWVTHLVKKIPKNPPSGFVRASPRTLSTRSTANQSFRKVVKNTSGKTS

[29] = target: PIP5K1A (human) (UniProt Q99755)
[30] = target: GRK7 (human) (UniProt Q8WTQ7)
[31] = target: ULK1 (human) (UniProt O75385)
[32] = target: ACVR1B (human) (UniProt P36896)
[33] = target: WEE2 (human) (UniProt P0C1S8)
[34] = target: PIP4K2B (human) (UniProt P78356)
[35] = target: PRKD1 (human) (UniProt Q15139)
[36] = target: STK10 (human) (UniProt O94804)
[37] = target: TAOK1 (human) (UniProt Q7L7X3)
[38] = target: TESK1 (human) (UniProt Q15569)
[39] = target: LYN (human) (UniProt P07948)
[40] = test system: PIK3CA (human), P42336 [I800L]
[41] = target: PAK3 (human) (UniProt O75914)
Chain of PAK3 (human) (O75914 whole entry, looked up): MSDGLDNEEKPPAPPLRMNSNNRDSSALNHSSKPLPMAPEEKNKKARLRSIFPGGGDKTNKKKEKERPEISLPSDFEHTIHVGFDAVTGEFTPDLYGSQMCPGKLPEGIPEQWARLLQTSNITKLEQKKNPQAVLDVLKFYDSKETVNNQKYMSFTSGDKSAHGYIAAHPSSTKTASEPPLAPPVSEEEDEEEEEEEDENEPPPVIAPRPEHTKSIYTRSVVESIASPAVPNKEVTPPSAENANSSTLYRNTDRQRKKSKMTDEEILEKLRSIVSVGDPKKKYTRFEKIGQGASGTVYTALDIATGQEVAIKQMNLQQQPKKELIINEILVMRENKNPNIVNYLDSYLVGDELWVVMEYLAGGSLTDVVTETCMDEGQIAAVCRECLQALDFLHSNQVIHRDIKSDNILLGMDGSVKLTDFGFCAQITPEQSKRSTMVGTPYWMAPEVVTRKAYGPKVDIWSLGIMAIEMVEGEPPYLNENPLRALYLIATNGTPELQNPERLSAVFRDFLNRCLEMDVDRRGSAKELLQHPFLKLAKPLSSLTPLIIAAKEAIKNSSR

Chain of MYO3A (human) (Q8NEV4 whole entry, looked up): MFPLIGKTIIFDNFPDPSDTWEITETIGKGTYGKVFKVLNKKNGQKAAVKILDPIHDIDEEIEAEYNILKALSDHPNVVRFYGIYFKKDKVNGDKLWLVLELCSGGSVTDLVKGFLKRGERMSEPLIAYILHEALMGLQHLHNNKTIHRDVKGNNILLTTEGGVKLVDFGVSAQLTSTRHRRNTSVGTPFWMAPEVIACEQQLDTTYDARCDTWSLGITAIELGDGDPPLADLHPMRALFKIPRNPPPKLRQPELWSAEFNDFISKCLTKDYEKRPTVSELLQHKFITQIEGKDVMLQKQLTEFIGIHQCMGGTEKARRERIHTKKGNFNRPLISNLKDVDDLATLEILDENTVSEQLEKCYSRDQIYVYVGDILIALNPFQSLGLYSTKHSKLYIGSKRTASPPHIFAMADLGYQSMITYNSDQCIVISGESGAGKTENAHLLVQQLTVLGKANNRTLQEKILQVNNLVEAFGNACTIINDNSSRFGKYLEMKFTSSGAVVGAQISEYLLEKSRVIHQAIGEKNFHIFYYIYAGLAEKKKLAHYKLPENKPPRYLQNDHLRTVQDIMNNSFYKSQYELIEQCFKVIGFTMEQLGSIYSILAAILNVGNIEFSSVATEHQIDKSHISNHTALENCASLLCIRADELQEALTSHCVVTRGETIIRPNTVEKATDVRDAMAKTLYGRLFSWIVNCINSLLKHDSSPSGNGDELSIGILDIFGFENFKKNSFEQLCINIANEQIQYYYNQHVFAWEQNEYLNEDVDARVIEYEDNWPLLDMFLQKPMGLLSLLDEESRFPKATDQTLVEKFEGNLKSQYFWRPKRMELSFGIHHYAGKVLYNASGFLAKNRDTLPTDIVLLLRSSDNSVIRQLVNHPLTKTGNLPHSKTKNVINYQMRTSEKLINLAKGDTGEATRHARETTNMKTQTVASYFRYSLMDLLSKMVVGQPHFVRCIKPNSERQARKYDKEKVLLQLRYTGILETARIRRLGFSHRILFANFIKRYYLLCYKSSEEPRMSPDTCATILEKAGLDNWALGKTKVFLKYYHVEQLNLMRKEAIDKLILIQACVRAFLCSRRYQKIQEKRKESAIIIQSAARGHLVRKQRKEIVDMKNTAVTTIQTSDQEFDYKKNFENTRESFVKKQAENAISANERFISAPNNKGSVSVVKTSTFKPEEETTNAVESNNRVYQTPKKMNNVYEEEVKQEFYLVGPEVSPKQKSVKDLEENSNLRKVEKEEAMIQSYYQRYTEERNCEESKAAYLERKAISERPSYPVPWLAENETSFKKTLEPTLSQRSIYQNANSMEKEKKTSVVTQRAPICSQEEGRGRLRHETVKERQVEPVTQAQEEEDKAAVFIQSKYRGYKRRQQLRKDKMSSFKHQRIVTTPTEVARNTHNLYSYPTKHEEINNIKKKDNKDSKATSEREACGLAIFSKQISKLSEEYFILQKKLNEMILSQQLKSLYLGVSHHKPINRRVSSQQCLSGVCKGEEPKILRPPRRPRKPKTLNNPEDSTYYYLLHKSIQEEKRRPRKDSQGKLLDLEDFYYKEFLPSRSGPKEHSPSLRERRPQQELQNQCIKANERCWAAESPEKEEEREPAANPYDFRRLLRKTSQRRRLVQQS

In the case of `COc1ccc(-c2ccc3c(N4CCOCC4)nc(N4C[C@@H](C)O[C@@H](C)C4)nc3n2)cc1CO`, the kinase still bound, per cent of control [1] is reported as 93%, the per cent of control [2] is reported as 100% and the kinase still bound, per cent of control [3] is reported as 97%. The kinase still bound, per cent of control [4] was 100%, the kinase still bound, per cent of control [5] was 84% and the kinase still bound, per cent of control [6] was 98%. It also gave a kinase still bound, per cent of control [7] of 97%, a kinase still bound, per cent of control [8] of 97% and a kinase still bound, per cent of control [9] of 95%. It also gave a kinase still bound, per cent of control [10] of 79%, a kinase still bound, per cent of control [11] of 86% and a kinase still bound, per cent of control [12] of 100%. The kinase still bound, per cent of control [13] was 100%, the kinase still bound, per cent of control [14] was 100% and the kinase still bound, per cent of control [15] was 91%. The per cent of control [16] was 100%, the kinase still bound, per cent of control [17] was 90% and the kinase still bound, per cent of control [18] was 100%. It also gave a kinase still bound, per cent of control [19] of 77%, a per cent of control [20] of 100% and a kinase still bound, per cent of control [21] of 100%. For the same compound, the kinase still bound, per cent of control [22] was 78%, the kinase still bound, per cent of control [23] was 97% and the per cent of control [24] was 96%. It also gave a kinase still bound, per cent of control [25] of 52%, a kinase still bound, per cent of control [26] of 100% and a kinase still bound, per cent of control [27] of 0%. For the same compound, the kinase still bound, per cent of control [28] was 89%, the kinase still bound, per cent of control [29] was 97% and the kinase still bound, per cent of control [30] was 100%. For the same compound, the kinase still bound, per cent of control [31] was 79%, the kinase still bound, per cent of control [32] was 91% and the kinase still bound, per cent of control [33] was 100%. The kinase still bound, per cent of control [34] was 100%, the kinase still bound, per cent of control [35] was 91% and the kinase still bound, per cent of control [36] was 92%. For the same compound, the kinase still bound, per cent of control [37] was 83%, the kinase still bound, per cent of control [38] was 98% and the kinase still bound, per cent of control [39] was 100%. For the same compound, the kinase still bound, per cent of control [40] was 0% and the kinase still bound, per cent of control [41] was 100%.
Work on `CCC(=O)N1CCN(c2ccc(-n3c(=O)ccc4cnc5ccc(-c6cnc7ccccc7c6)cc5c43)cc2C(F)(F)F)CC1` yielded a kinase still bound, per cent of control [1] of 48%, a per cent of control [2] of 97% and a kinase still bound, per cent of control [3] of 100%. For the same compound, the kinase still bound, per cent of control [4] was 81%, the kinase still bound, per cent of control [5] was 82% and the kinase still bound, per cent of control [6] was 42%. The kinase still bound, per cent of control [7] was 63%, the kinase still bound, per cent of control [8] was 89% and the kinase still bound, per cent of control [9] was 90%. It also gave a kinase still bound, per cent of control [10] of 85%, a kinase still bound, per cent of control [11] of 77% and a kinase still bound, per cent of control [12] of 100%. It also gave a kinase still bound, per cent of control [13] of 100%, a kinase still bound, per cent of control [14] of 5.8% and a kinase still bound, per cent of control [15] of 100%. For the same compound, the per cent of control [16] was 91%, the kinase still bound, per cent of control [17] was 50% and the kinase still bound, per cent of control [18] was 96%. The per cent of control [20] was 99%, the kinase still bound, per cent of control [21] was 6.8% and the kinase still bound, per cent of control [22] was 28%. It also gave a kinase still bound, per cent of control [23] of 50%, a per cent of control [24] of 100% and a kinase still bound, per cent of control [25] of 49%. For the same compound, the kinase still bound, per cent of control [26] was 51%, the kinase still bound, per cent of control [28] was 53% and the kinase still bound, per cent of control [29] was 89%. It also gave a kinase still bound, per cent of control [30] of 100%, a kinase still bound, per cent of control [31] of 100% and a kinase still bound, per cent of control [32] of 45%. For the same compound, the kinase still bound, per cent of control [33] was 100%, the kinase still bound, per cent of control [34] was 100% and the kinase still bound, per cent of control [35] was 99%. For the same compound, the kinase still bound, per cent of control [36] was 79%, the kinase still bound, per cent of control [37] was 58% and the kinase still bound, per cent of control [38] was 58%. For the same compound, the kinase still bound, per cent of control [39] was 79%, the kinase still bound, per cent of control [40] was 0% and the kinase still bound, per cent of control [41] was 100%.
